This note sets out measurements from patent publication US11590116B2 (THERAVANCE BIOPHARMA R&D IP, LLC, priority 2019, dated 2023).

Like-named read-outs stand apart in the source and are kept apart here.

In test [1] the test system is TGF-β-stimulated SMAD3 phosphorylation in BEAS-2B cells. The test can be described thus: Cellular ALK5 potency assay, inhibition of TGF-β stimulated pSMAD3 formation in BEAS-2B cells. As to conditions: Homo sapiens, read-out: BEAS2B pIC50 (converted). Format: cell-based. Summed up: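 BEAS-2B human lung epithelial cells pre-treated 1 h at 37° C with compound in HBSS/25 mM HEPES/1% BSA, then stimulated 30 min with 10 ng/mL TGF-β (final). Lysates assayed for pSMAD3 by AlphaLISA; pIC50 from dose-dependent change versus stimulated untreated cells.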

The target in test [2] is T1, recombinant human ALK5 (TGF-βR1) protein (Homo sapiens, UniProt P36897).
T1 construct: purchased Life Technologies PR9075A
T1 sequence (P36897 34-503): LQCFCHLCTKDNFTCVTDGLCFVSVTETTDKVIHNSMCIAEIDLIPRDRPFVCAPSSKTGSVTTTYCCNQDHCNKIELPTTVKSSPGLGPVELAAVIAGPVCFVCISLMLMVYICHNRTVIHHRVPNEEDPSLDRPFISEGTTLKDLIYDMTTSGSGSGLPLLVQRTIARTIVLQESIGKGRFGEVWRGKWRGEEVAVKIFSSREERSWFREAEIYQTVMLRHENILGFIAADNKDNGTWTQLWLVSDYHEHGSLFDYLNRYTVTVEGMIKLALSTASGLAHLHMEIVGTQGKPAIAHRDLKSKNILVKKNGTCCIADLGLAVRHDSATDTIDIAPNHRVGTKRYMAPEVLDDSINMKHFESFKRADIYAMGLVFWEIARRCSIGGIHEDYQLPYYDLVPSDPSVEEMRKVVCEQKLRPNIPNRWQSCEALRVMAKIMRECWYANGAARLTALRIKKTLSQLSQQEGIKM
Description: Biochemical ALK5 (TGF-βR1) assay to measure pKi (LANCE Ultra ULight kinase assay). Conditions: apparent pKi from pIC50 by Cheng-Prusoff, read-out: ALK5 pKi (converted). The essentials: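 Compounds (10 μM to 25 pM) were preincubated 60 min at room temperature with enzyme, then reactions were started with ATP (125 μM stock, 5× final) and run 60 min at 37 °C. EDTA-containing Eu-anti-phospho-Topo IIα (Thr1342) antibody stopped the reaction; TR-FRET read at 665 nm. pIC50 from 4-parameter fit, converted to pKi via Cheng-Prusoff.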

Where [3] appears, read: inhibition of TGF-β stimulated pSMAD3 formation, BEAS-2B cells.

As for `Cc1cccc(-c2[nH]cnc2-c2ccc3ncc(-c4cc(C(=O)OC5CCNCC5)cs4)cc3c2)n1` [Compound 1139, 4-piperidyl 5-[6-[5-(6-methyl-2-pyridyl)-1H-imidazol-4-yl]-3-quinolyl]thiophene-3-carboxylate], the IC50 in test [1] (setting [3]) is 25.1 to 158 nM. Further, the Ki in test [2] is less than 0.0316 nM.

With `Cc1cccc(-c2[nH]cnc2-c2ccc3ncc(C(=O)OCCC4CCNCC4)cc3c2)n1` [Compound 1048, 2-(4-piperidyl)ethyl 6-[5-(6-methyl-2-pyridyl)-1H-imidazol-4-yl]quinoline-3-carboxylate], the IC50 in test [1] (setting [3]) is 25.1 to 158 nM. Also, the Ki in test [2] was 0.0398 to 0.316 nM.

Turning to `Cc1cccc(-c2[nH]cnc2-c2ccc3ncc(C4=CCC(C(=O)O[C@@H]5CCNC5)CC4)cc3c2)n1` (stereo partly drawn) [Compound 49, [(3R)-pyrrolidin-3-yl] 4-[6-[5-(6-methyl-2-pyridyl)-1H-imidazol-4-yl]-3-quinolyl]cyclohex-3-ene-1-carboxylate], the IC50 in test [1] (setting [3]) is 25.1 to 158 nM. Also, the Ki in test [2] is 0.0398 to 0.316 nM.

Take `Cc1cccc(-c2[nH]cnc2-c2ccc3ncc(Nc4nc5n(n4)CCN(C(C)C)C5)cc3c2)n1` [Compound 128, N-(7-isopropyl-6,8-dihydro-5H-[1,2,4]triazolo[1,5-a]pyrazin-2-yl)-6-[5-(6-methyl-2-pyridyl)-1H-imidazol-4-yl]quinolin-3-amine]: the IC50 in test [1] (setting [3]) is 25.1 to 158 nM. In test [2], the Ki is 0.0398 to 0.316 nM.

With `Cc1cccc(-c2n[nH]cc2-c2ccc3ncc(-c4nc5n(n4)CCNC5)cc3n2)n1` [Compound 67, 2-[3-(6-methyl-2-pyridyl)-1H-pyrazol-4-yl]-7-(5,6,7,8-tetrahydro-[1,2,4]triazolo[1,5-a]pyrazin-2-yl)-1,5-naphthyridine], the IC50 in test [1] (setting [3]) is 25.1 to 158 nM. The Ki in test [2] is 0.0398 to 0.316 nM.

With `Cc1cccc(-c2[nH]cnc2-c2ccc3ncc(C4=CC[C@H](N)CC4)cc3c2)n1` [Compound 81, (1R)-4-[6-[5-(6-methyl-2-pyridyl)-1H-imidazol-4-yl]-3-quinolyl]cyclohex-3-en-1-amine], in test [1] (setting [3]), the IC50 was less than 20 nM. Further, the Ki in test [2] was less than 0.0316 nM.

As for `Cc1cccc(-c2[nH]ncc2-c2ccc3ncc(C(=O)O)cc3c2)n1` [Compound 783, 6-[5-(6-methyl-2-pyridyl)-1H-pyrazol-4-yl]quinoline-3-carboxylic Acid], in test [1] (setting [3]), the IC50 was 1580 to 10000 nM. The Ki in test [2] is 3.98 to 31.6 nM.

`Cc1cccc(-c2[nH]cnc2-c2ccc3ncc(-c4csc(C(=O)O[C@H]5CCNC5)n4)cc3c2)n1` [Compound 1024, [(3S)-pyrrolidin-3-yl] 4-[6-[5-(6-methyl-2-pyridyl)-1H-imidazol-4-yl]-3-quinolyl]thiazole-2-carboxylate]: the IC50 in test [1] (setting [3]) was 25.1 to 158 nM. Moreover, the Ki in test [2] was 0.0398 to 0.316 nM.

For the compound `Cc1cccc(-c2n[nH]cc2-c2ccc3ncc(N4CCNC(C(N)=O)C4)cc3n2)n1` (racemic) [Compound 497, rac-(2S)-4-[6-[3-(6-methyl-2-pyridyl)-1H-pyrazol-4-yl]-1,5-naphthyridin-3-yl]piperazine-2-carboxamide], in test [1] (setting [3]), the IC50 is 200 to 1260 nM. For the same compound, the Ki in test [2] was 0.0398 to 0.316 nM.

Take `Cc1cccc(-c2n[nH]cc2-c2ccc3ncc(CNCCCN4CCOCC4)cc3n2)n1` [Compound 155, N-[[6-[3-(6-methyl-2-pyridyl)-1H-pyrazol-4-yl]-1,5-naphthyridin-3-yl]methyl]-3-morpholino-propan-1-amine]: the IC50 in test [1] (setting [3]) is 25.1 to 158 nM. In test [2], the Ki was 0.398 to 3.16 nM.

As to `Cc1cccc(-c2[nH]cnc2-c2ccc3ncc(N4CCC(N)CC4)cc3c2)n1` [Compound 438, 1-[6-[5-(6-methyl-2-pyridyl)-1H-imidazol-4-yl]-3-quinolyl]piperidin-4-amine], in test [1] (setting [3]), the IC50 is 25.1 to 158 nM. Moreover, in test [2], the Ki is 0.0398 to 0.316 nM.

Consider `Cc1cccc(-c2[nH]cnc2-c2ccc3ncc(C(=O)O[C@H]4CCN(C)C4)cc3c2)n1` [Compound 724, [(3S)-1-methylpyrrolidin-3-yl] 6-[5-(6-methyl-2-pyridyl)-1H-imidazol-4-yl]quinoline-3-carboxylate], for which the IC50 in test [1] (setting [3]) was 25.1 to 158 nM. Moreover, the Ki in test [2] is 0.398 to 3.16 nM.

Turning to `Cc1cccc(-c2n[nH]cc2-c2ccc3ncc(N4CCCN(CC5CCCN5)CC4)cc3n2)n1` (stereo not shown) [Compound 274, 2-[3-(6-methyl-2-pyridyl)-1H-pyrazol-4-yl]-7-[4-(pyrrolidin-2-ylmethyl)-1,4-diazepan-1-yl]-1,5-naphthyridine], the IC50 in test [1] (setting [3]) was 200 to 1260 nM. The Ki in test [2] is 0.0398 to 0.316 nM.

Turning to `Cc1cccc(-c2[nH]ncc2-c2ccc3ncc(OC(=O)[C@H]4C[C@@H](N)C4)cc3c2)n1` [Compound 1032, 6-(5-(6-methylpyridin-2-yl)-1H-pyrazol-4-yl)quinolin-3-yl (1s,3s)-3-aminocyclobutane-1-carboxylate], the IC50 in test [1] (BEAS-2B) was less than 20 nM. For the same compound, the Ki in test [2] was 0.0398 to 0.316 nM.

For the compound `COC(=O)C1CN(CCNc2cnc3ccc(-c4c[nH]nc4-c4cccc(C)n4)nc3c2)CCN1` (stereo not shown) [Compound 137, methyl 4-[2-[[6-[3-(6-methyl-2-pyridyl)-1H-pyrazol-4-yl]-1,5-naphthyridin-3-yl]amino]ethyl]piperazine-2-carboxylate], in test [1] (setting [3]), the IC50 was 1580 to 10000 nM. Besides, the Ki in test [2] was 0.0398 to 0.316 nM.

Take `Cc1nc(-c2n[nH]cc2-c2ccc3ncc(-c4cnc5n4CCNC5)cc3n2)ccc1F` [Compound 245, 2-[3-(5-fluoro-6-methyl-2-pyridyl)-1H-pyrazol-4-yl]-7-(5,6,7,8-tetrahydroimidazo[1,2-a]pyrazin-3-yl)-1,5-naphthyridine]: in test [1] (setting [3]), the IC50 was 25.1 to 158 nM. In test [2], the Ki was 0.0398 to 0.316 nM.

`CC(=O)N[C@@H]1CC=C(c2cnc3ccc(-c4nc[nH]c4-c4cccc(C)n4)cc3c2)CC1` [Compound 380, N-[(1S)-4-[6-[5-(6-methyl-2-pyridyl)-1H-imidazol-4-yl]-3-quinolyl]cyclohex-3-en-1-yl]acetamide]: in test [1] (setting [3]), the IC50 is less than 20 nM. Also, the Ki in test [2] is less than 0.0316 nM.

In the case of `Cc1cccc(-c2n[nH]cc2-c2ccc3nccc(C4COCC(C)N4)c3n2)n1` (stereo not shown) [Compound 863, 3-methyl-5-[6-[3-(6-methyl-2-pyridyl)-1H-pyrazol-4-yl]-1,5-naphthyridin-4-yl]morpholine], the IC50 in test [1] (setting [3]) is 200 to 1260 nM. The Ki in test [2] was 3.98 to 31.6 nM.

Take `Cc1cccc(-c2n[nH]cc2-c2ccc3nccc(CNCCCN4CCOCC4)c3n2)n1` [Compound 815, N-[[6-[3-(6-methyl-2-pyridyl)-1H-pyrazol-4-yl]-1,5-naphthyridin-4-yl]methyl]-3-morpholino-propan-1-amine]: the IC50 in test [1] (setting [3]) is 25.1 to 158 nM. Also, the Ki in test [2] was 0.0398 to 0.316 nM.

For the compound `CNCCn1ccc(-c2cnc3ccc(-c4c[nH]nc4-c4cccc(C)n4)nc3c2)n1` [Compound 229, N-methyl-2-[3-[6-[3-(6-methyl-2-pyridyl)-1H-pyrazol-4-yl]-1,5-naphthyridin-3-yl]pyrazol-1-yl]ethanamine], the IC50 in test [1] (setting [3]) was 25.1 to 158 nM. Besides, the Ki in test [2] is less than 0.0316 nM.

Take `CNC1CCN(c2cnc3ccc(-c4c(-c5cccc(C)n5)nc5ccccn45)nc3c2)CC1` [Compound 501, N-methyl-1-[6-[2-(6-methyl-2-pyridyl)imidazo[1,2-a]pyridin-3-yl]-1,5-naphthyridin-3-yl]piperidin-4-amine]: in test [1] (setting [3]), the IC50 was 25.1 to 158 nM. In addition, the Ki in test [2] was 0.0398 to 0.316 nM.

Take `Cc1cccc(-c2[nH]cnc2-c2ccc3ncc(NCCN4CC5(CCCNC5)C4)cc3c2)n1` [Compound 733, N-[2-(2,8-diazaspiro[3.5]nonan-2-yl)ethyl]-6-[5-(6-methyl-2-pyridyl)-1H-imidazol-4-yl]quinolin-3-amine]: the IC50 in test [1] (setting [3]) is 200 to 1260 nM. For the same compound, the Ki in test [2] was 0.0398 to 0.316 nM.

`Cc1cccc(-c2[nH]cnc2-c2ccc3ncc(C(=O)OCC4CC5(CNC5)C4)cc3c2)n1` [Compound 1116, 2-azaspiro[3.3]heptan-6-ylmethyl 6-[5-(6-methyl-2-pyridyl)-1H-imidazol-4-yl]quinoline-3-carboxylate]: the IC50 in test [1] (setting [3]) was 200 to 1260 nM. The Ki in test [2] was 0.0398 to 0.316 nM.

In the case of `Cc1cccc(-c2[nH]cnc2-c2ccc3ncc(-c4ccc(CN5C[C@@H](C)N[C@@H](C)C5)nc4)cc3c2)n1` [Compound 1045, 3-(6-(((3S,5R)-3,5-dimethylpiperazin-1-yl)methyl)pyridin-3-yl)-6-(5-(6-methylpyridin-2-yl)-1H-imidazol-4-yl)quinoline], the IC50 in test [1] (setting [3]) is 25.1 to 158 nM. Besides, the Ki in test [2] was 0.0398 to 0.316 nM.

Regarding `Cc1cccc(-c2[nH]cnc2-c2ccc3ncc(-c4cccc(C(=O)OC5CNC5)n4)cc3c2)n1` [Compound 1128, azetidin-3-yl 6-[6-[5-(6-methyl-2-pyridyl)-1H-imidazol-4-yl]-3-quinolyl]pyridine-2-carboxylate], the IC50 in test [1] (setting [3]) is 25.1 to 158 nM. For the same compound, the Ki in test [2] is 0.0398 to 0.316 nM.

`Cc1cccc(-c2[nH]cnc2-c2ccc3ncc(-c4cccc5c4CNCC5)cc3c2)n1` [Compound 493, 6-[5-(6-methyl-2-pyridyl)-1H-imidazol-4-yl]-3-(1,2,3,4-tetrahydroisoquinolin-8-yl)quinoline]: the IC50 in test [1] (setting [3]) was 200 to 1260 nM. The Ki in test [2] is 3.98 to 31.6 nM.
